The values that follow come from ChEMBL document CHEMBL3091456, “Chemical Probe Identification Platform for Orphan GPCRs Using Focused Compound Screening: GPR39 as a Case Example” (ACS Med Chem Lett, 2013).

Structures are written as SMILES. Active and inactive are the calls of the source. The rule behind the calls is not given here.

The nature of series [1]: Apparent permeability of the compound. Format: physicochemical. The settings on record: not told.
For series [2], the target named is T1, G-protein coupled receptor 39 (Homo sapiens) (UniProt O43194).
T1 sequence (whole entry): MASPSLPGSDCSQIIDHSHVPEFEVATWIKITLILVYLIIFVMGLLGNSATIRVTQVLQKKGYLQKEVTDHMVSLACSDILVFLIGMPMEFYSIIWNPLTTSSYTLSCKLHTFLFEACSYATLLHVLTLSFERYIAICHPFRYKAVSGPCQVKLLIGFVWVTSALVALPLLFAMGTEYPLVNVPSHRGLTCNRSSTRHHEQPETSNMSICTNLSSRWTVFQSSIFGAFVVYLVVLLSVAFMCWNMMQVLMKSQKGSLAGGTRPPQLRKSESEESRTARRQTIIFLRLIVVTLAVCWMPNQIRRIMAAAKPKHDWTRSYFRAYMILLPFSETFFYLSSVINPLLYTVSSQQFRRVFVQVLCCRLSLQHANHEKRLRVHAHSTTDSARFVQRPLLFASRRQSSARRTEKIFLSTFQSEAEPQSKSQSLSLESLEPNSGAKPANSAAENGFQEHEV
The experiment in a line: Agonist activity at recombinant human GPR39 expressed in CHO-K1 cells assessed as increase of Zn2+-induced cAMP production preincubated for 30 mins measured after 60 mins relative to Zn+2. Format: functional, cell-based.

Series [3] has as its target T1, G-protein coupled receptor 39 (Homo sapiens). The series can be described thus: Agonist activity at recombinant human GPR39 expressed in CHO-K1 cells assessed as increase of Zn2+-induced intracellular Ca+2 mobilization after 1 hr by Fluo-4 No staining-based FLIPR assay relative to Zn+2. The class given is cell-based.
In series [4] the target is T2, G-protein coupled receptor 39 (Homo sapiens, UniProt O43194).
T2 sequence (O43194 whole entry): T1 sequence (whole entry)
The experiment in a line: Agonist activity at recombinant human GPR39 expressed in CHO-K1 cells assessed as increase of Zn2+-induced cAMP production preincubated for 30 mins measured after 60 mins. Format: functional, cell-based. (cAMP levels reflect the balance of adenylyl cyclase and phosphodiesterase activity.)

The target of series [5] is T2, G-protein coupled receptor 39. The experiment in a line: Agonist activity at recombinant human GPR39 expressed in CHO-K1 cells assessed as increase of Zn2+-induced intracellular Ca+2 mobilization after 1 hr by Fluo-4 No staining-based FLIPR assay. The class given is cell-based.
Series [6] concerns the target T3, Protein Gpr39 (Rattus norvegicus) (UniProt A6QR73).
T3 sequence (whole entry): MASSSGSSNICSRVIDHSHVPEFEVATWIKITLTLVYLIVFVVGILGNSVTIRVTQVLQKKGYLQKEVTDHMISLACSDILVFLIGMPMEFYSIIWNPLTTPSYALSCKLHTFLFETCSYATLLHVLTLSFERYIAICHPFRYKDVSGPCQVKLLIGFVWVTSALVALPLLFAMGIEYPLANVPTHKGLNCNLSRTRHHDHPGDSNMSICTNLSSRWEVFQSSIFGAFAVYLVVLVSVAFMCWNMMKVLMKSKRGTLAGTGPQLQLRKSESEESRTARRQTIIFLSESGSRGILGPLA
The experiment in a line: Agonist activity at GPR39 in rat INS-1 cells assessed as effect on glucose-stimulated insulin secretion. Format: cell-based. The conditions noted are these: INS1.

Series [7] concerns the target T1, G-protein coupled receptor 39 (Homo sapiens). The series can be described thus: Agonist activity at GPR39 in human islets assessed as 11.2 mM glucose-stimulated insulin secretion up to 10 uM after 1 hr.
The target is the same in series [8]. The experiment in a line: Agonist activity at GPR39 in human islets assessed as 2.8 mM glucose-stimulated insulin secretion up to 10 uM after 0.75 hrs.
Series [9] has the same target. The experiment in a line: Agonist activity at GPR39 in human HT-29 cells assessed as cAMP accumulation. The class given is functional, cell-based.
Series [10] shares this target. The series can be described thus: Agonist activity at GPR39 in human HT-29 cells assessed as intracellular Ca2+ mobilization after 72 hrs by FLIPR assay in presence of siRNA. Format: functional, cell-based. (In general: Calcium assays in cells follow changes in intracellular calcium, usually with a dye or a luminescent sensor.)
The target of series [11] is T2, G-protein coupled receptor 39. The experiment in a line: Agonist activity at GPR39 in human HT-29 cells assessed as increase in intracellular Ca2+ mobilization after 72 hrs by FLIPR assay. Format: functional, cell-based.
Series [12] deals with cGMP-inhibited 3',5'-cyclic phosphodiesterase 3B (Homo sapiens, UniProt Q13370). The series can be described thus: Inhibition of PDE3B (unknown origin).
cGMP-inhibited 3',5'-cyclic phosphodiesterase 3B, sequence (Q13370 whole entry): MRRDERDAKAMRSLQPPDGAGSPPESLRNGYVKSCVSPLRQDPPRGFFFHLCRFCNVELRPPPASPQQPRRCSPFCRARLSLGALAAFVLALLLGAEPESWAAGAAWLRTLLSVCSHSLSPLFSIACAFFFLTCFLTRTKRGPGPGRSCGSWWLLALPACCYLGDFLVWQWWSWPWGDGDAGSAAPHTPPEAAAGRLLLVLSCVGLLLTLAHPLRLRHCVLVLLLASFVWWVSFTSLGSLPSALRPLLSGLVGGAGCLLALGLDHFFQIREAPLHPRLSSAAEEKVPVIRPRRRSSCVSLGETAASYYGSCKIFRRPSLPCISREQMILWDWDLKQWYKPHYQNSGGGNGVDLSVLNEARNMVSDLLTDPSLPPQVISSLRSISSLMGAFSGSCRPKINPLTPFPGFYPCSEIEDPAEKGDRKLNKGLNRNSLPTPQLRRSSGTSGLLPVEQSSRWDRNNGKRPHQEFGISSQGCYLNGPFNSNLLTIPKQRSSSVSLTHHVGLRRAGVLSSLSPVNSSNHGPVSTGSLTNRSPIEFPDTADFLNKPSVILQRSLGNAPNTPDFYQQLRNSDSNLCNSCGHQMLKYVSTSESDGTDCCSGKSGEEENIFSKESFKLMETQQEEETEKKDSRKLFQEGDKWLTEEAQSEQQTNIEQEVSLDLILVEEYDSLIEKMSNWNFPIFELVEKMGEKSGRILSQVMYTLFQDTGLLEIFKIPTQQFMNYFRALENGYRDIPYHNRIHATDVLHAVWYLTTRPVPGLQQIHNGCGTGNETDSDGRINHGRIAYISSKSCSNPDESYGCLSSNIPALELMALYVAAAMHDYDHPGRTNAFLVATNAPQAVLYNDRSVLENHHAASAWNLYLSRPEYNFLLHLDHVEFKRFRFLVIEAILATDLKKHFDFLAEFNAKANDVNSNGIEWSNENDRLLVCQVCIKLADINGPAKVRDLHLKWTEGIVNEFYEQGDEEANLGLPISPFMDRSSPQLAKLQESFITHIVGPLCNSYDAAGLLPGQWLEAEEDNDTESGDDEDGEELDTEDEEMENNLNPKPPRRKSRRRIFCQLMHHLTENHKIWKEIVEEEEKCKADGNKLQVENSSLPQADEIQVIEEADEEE
Series [13] concerns the target cGMP-inhibited 3',5'-cyclic phosphodiesterase 3A (Homo sapiens, UniProt Q14432). The series can be described thus: Inhibition of PDE3a (unknown origin).
Series [14] is described as follows: Apparent permeability across MDCK cells. The class given is ADME, cell-based, Canis lupus familiaris. The settings on record: dog.
In series [15] the target is T1, G-protein coupled receptor 39 (Homo sapiens). The experiment in a line: Agonist activity at GPR39 in human HT-29 cells assessed as cAMP accumulation up to 30 uM. Format: functional, cell-based.
Series [16] shares this target. The experiment in a line: Agonist activity at GPR39 in human HT-29 cells assessed as intracellular Ca2+ mobilization up to 30 uM after 72 hrs by FLIPR assay. The class given is functional, cell-based.

In general, Papp refers to a coefficient for how fast a substance crosses the barrier. Broadly, the EC50 is the concentration that produces a half-maximal response. One may read the IC50 as the midpoint of a concentration-inhibition curve. A low value points to greater potency.

cGMP-inhibited 3',5'-cyclic phosphodiesterase 3A, sequence (Q14432 whole entry): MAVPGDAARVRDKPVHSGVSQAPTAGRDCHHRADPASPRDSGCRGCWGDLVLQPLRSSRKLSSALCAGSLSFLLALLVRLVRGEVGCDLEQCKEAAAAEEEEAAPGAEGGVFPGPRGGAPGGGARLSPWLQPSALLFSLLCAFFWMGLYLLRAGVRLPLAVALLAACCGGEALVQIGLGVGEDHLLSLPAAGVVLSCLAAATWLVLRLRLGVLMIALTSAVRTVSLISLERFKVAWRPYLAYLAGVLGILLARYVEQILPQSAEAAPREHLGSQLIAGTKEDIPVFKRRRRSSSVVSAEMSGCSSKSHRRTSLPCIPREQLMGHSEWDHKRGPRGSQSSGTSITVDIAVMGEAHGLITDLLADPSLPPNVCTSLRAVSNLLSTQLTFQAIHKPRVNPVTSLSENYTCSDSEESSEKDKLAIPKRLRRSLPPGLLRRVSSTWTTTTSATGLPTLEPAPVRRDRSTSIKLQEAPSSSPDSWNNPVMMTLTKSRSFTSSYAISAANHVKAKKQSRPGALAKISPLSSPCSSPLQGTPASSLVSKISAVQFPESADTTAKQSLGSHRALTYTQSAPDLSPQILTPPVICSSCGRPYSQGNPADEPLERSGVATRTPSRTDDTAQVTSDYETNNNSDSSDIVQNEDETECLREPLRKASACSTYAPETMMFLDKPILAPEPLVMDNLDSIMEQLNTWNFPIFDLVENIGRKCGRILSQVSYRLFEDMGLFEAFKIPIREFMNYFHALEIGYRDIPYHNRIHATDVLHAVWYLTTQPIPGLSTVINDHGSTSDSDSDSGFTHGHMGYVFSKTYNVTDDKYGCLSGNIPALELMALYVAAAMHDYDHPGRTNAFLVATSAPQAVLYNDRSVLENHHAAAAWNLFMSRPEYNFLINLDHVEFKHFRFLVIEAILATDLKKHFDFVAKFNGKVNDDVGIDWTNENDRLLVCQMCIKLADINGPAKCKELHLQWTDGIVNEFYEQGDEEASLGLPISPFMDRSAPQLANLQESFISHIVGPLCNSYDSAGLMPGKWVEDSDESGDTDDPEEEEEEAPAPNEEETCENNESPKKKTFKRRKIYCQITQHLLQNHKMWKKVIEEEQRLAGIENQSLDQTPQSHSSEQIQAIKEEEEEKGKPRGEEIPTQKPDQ

Turning to `COc1cccc([C@@H]2CCN(CCc3ccccc3)C[C@H]2C(=O)NCCc2ccccn2)c1` (racemic), in [1], the Papp worked out at 31 nm/s. Besides, the Efficacy in series [2] stood at 107%; in series [3], 82%. Besides, the EC50 in series [4] stood at 4.5 µM; in series [5] it was 3.1 µM.

Turning to `CCc1ncc(CN2C[C@H](C(=O)NCc3ccccc3Cl)[C@@H](c3cccnc3)C2)[nH]1`, the Papp in series [1] came out at 12 nm/s. Besides, the EC50 was 0.31 µM in series [4] and 0.32 µM in [5].

Turning to `N#Cc1ccc(N2CCN(Cc3cn4cc(Cl)ccc4n3)CC2)nc1`, the outcome in series [6], in series [7], in [8], in [9] and in series [10] was inactive. Also, the values for the EC50 in series [11], in [4] and in series [5] were 0.9 µM, 12 µM and 0.056 µM, respectively. For the same compound, the concentration for half-maximal inhibition (IC50) in series [12] turned out to be 24 µM; in [13], 15 µM. The Efficacy in [2] was 100%; in [3], 76%. For the same compound, in series [14], the Papp was 76 nm/s.

As to `CCc1ncc(CN2C[C@@H](C(=O)NCc3ccccc3Cl)[C@H](c3cccnc3)C2)[nH]1`, the Papp in [1] turned out to be 8 nm/s. In addition, the half-maximal effective concentration (EC50) in [4] stood at 0.84 µM; in series [5], 0.19 µM.

On to `CCc1nc(CN2C[C@H](C(=O)NCc3ccccc3Cl)[C@@H](c3cccnc3)C2)c[nH]1`, for which the result in [15] and in series [16] was inactive. Also, the Efficacy in [2] worked out at 107%; in series [3] it was 66%.

As to `CCc1nc(CN2C[C@@H](C(=O)NCc3ccccc3Cl)[C@H](c3cccnc3)C2)c[nH]1`, the result in series [15] and in series [16] was inactive. The values for the Efficacy in [2] and in [3] were 99% and 74%, respectively.
